Test results reported in ChEMBL document CHEMBL1131031, “Indolequinone antitumor agents: reductive activation and elimination from (5-methoxy-1-methyl-4,7-dioxoindol-3-yl)methyl derivatives and hypoxia-selective cytotoxicity in vitro” (J Med Chem, 1998).

Key:
[1] = In vitro cytotoxicity against hypoxic V79-379A cells determined by MTT assay in the presence of nitrogen; format: functional, cell-based; settings: Cricetulus griseus
[2] = In vitro cytotoxicity against […] V79-379A cells determined by MTT assay in the presence of air; format: functional, cell-based; settings: Cricetulus griseus

Compound: COC1=CC(=O)c2c(c(COCc3ccccc3)c(C)n2C)C1=O
- IC50 [1]: 410 µM
- IC50 [2]: 225 µM

Compound: COC1=CC(=O)c2c(c(COC(N)=O)cn2C)C1=O
- IC50 [1]: 0.04 µM
- IC50 [2]: 3 µM

Compound: COC1=CC(=O)c2c(c(COC(=O)c3ccccc3F)c(C)n2C)C1=O
- IC50 [1]: 2 µM
- IC50 [2]: 164 µM

Compound: COC1=CC(=O)c2c(c(CO)cn2C)C1=O
- IC50 [1]: 240 µM
- IC50 [2]: 220 µM

Compound: COC1=CC(=O)c2c(c(CO)c(C3CC3)n2C)C1=O
- IC50 [1]: 820 µM
- IC50 [2]: 540 µM

Compound: COC1=CC(=O)c2c(c(COC(=O)c3ccccc3F)cn2C)C1=O
- IC50 [1]: 0.04 µM
- IC50 [2]: 0.5 µM

Compound: COC1=CC(=O)c2c(c(COC(=O)c3ccc(F)cc3)c(C)n2C)C1=O
- IC50 [1]: 0.3 µM
- IC50 [2]: 27 µM

Compound: COC1=CC(=O)c2c(c(COC(=O)c3ccccc3)c(C)n2C)C1=O
- IC50 [1]: 0.2 µM
- IC50 [2]: 16 µM

Compound: COC1=CC(=O)c2c(c(COC(C)=O)c(C)n2C)C1=O
- IC50 [1]: 2.5 µM
- IC50 [2]: 27 µM

Compound: COC1=CC(=O)c2c(c(COc3c(Cl)cc(Cl)cc3Cl)cn2C)C1=O
- IC50 [1]: 0.08 µM
- IC50 [2]: 0.7 µM

Compound: COC1=CC(=O)c2c(c(CCl)cn2C)C1=O
- IC50 [1]: 33 µM
- IC50 [2]: 304 µM

Compound: COC1=CC(=O)c2c(c(COC(=O)c3ccccc3)cn2C)C1=O
- IC50 [1]: 0.04 µM
- IC50 [2]: 1.4 µM

Compound: COC1=CC(=O)c2c(c(Cc3ccc(O)c(F)c3)c(C)n2C)C1=O
- IC50 [1]: 280 µM
- IC50 [2]: 470 µM

Compound: COC1=CC(=O)c2c(c(COc3ccc(F)cc3)c(C)n2C)C1=O
- IC50 [1]: 0.85 µM
- IC50 [2]: 31 µM

Compound: COC1=CC(=O)c2c(c(Cc3cc(F)ccc3O)c(C)n2C)C1=O
- IC50 [1]: 110 µM
- IC50 [2]: 200 µM

Compound: CCOC(=S)SCc1c2c(n(C)c1C)C(=O)C=C(OC)C2=O
- IC50 [1]: 3 µM
- IC50 [2]: 67 µM

Compound: COC1=CC(=O)c2c(c(COC(=O)c3ccc(F)cc3)cn2C)C1=O
- IC50 [1]: 0.05 µM
- IC50 [2]: 0.7 µM

Compound: COC1=CC(=O)c2c(c(COC(=O)c3ccccc3)c(C3CC3)n2C)C1=O
- IC50 [1]: 1 µM
- IC50 [2]: 198 µM

Compound: COC1=CC(=O)c2c(c(COC(N)=O)c(C)n2C)C1=O
- IC50 [1]: 0.3 µM
- IC50 [2]: 25 µM

Compound: COC1=CC(=O)c2c(c(CO)c(C)n2C)C1=O
- IC50 [1]: 285 µM
- IC50 [2]: 1080 µM

Compound: COC1=CC(=O)c2c(c(COC(=O)Cc3ccc(-c4ccccc4)cc3)c(C)n2C)C1=O
- IC50 [1]: 0.66 µM
- IC50 [2]: 14.1 µM

Compound: COC1=CC(=O)c2c(c(COc3ccccc3)c(C)n2C)C1=O
- IC50 [1]: 0.7 µM
- IC50 [2]: 12 µM

Compound: COC1=CC(=O)c2c(c(COc3cccc(NC(C)=O)c3)c(C)n2C)C1=O
- IC50 [1]: 0.04 µM
- IC50 [2]: 3.7 µM
